The numbers were not newly measured in patent US20220125792A1, “USE OF COMPOSITION CONTAINING CDK4/6 INHIBITOR IN COMBINATION WITH ANASTROZOLE IN PREPARATION OF MEDICAMENT FOR TREATING TUMOR DISEASES” (Jiangsu Hengrui Medicine Co., Ltd., priority 2019, published 2022), which cites them from elsewhere.

The test system of data set [1] is systemic aromatization and plasma estrogen level. The note with it: letrozole 2.5 mg once a day, postmenopausal women with metastatic breast cancer.

In the case of `N#Cc1ccc(C(c2ccc(C#N)cc2)n2cncn2)cc1` [letrozole], the “inhibition of systemic aromatization and plasma estrogen level, compared with anastrozole (1 mg daily)” value in data set [1] was “more effective systemic aromatization and plasma estrogen level inhibitor than anastrozole”. For the same compound, in the data set with advanced breast cancer (European Journal of Cancer 39 (2003) 2318-2327), the “total remission rate (ORR), letrozole versus anastrozole” value is “significantly superior to anastrozole”. Besides, in the data set with advanced breast cancer (open randomized trial), the “response of advanced breast cancer, second-line hormonal therapy, letrozole versus anastrozole” value is reported as “responded more strongly to letrozole than to anastrozole”.
